# Measurements reported in PubChem BioAssay AID1996.
# Details: buffer; pH 7.4; 200.0 µM
row,Compound,solubility kinetic
1,CS(=O)(=O)c1ccc(C(=O)N2CCc3ccccc3C2)cc1,> 47.3 µg/mL
2,CN(C1CCCCC1)S(=O)(=O)c1cn(C)c(=O)n(C)c1=O,> 47.3 µg/mL
3,Cc1cccc(NC(=S)N(C)C2CCCCC2)c1,30.1 µg/mL
4,O=C(O)C1CCN(C(=O)c2ccc3c(c2)OCO3)CC1,36.2 µg/mL
5,CCN(CC(=O)NCCN1CCOCC1)S(=O)(=O)c1ccc(F)cc1,> 56 µg/mL
6,O=C(Cc1ccccc1)N1CCN(CCCc2ccccc2)CC1.O=C(O)C(=O)O,> 61.9 µg/mL
7,N#CCN1CCN(CC(=O)c2ccc(Br)cc2)CC1,47.3 µg/mL
8,CCCCOc1ccc(/C(O)=C(\C#N)c2nc3ccccc3[nH]2)cc1,< 0.2 µg/mL
9,O=c1c2c([N+](=O)[O-])cc([N+](=O)[O-])cc2sn1Cc1ccccc1,17.2 µg/mL
10,CC1(C)CC(NC(=S)NC2CC2)CC(C)(C)N1,> 38.3 µg/mL
11,CCCC/C=C1\CCc2c([nH]c3ccccc23)C1=O,2 µg/mL
12,O=[N+]([O-])c1ccc(N2CCOCC2)c2cccnc12,> 38.9 µg/mL
13,c1ccc(CN2CCC(Nc3ncnc4sccc34)CC2)cc1,46.2 µg/mL
14,CCCCN1C(=O)C(=O)N(CC(=O)Nc2ccccc2C(C)=O)C1=O,> 51.8 µg/mL
15,CC(C)(C)C1CCC(C(=O)Nc2cccnc2)CC1 (stereo not given),6.3 µg/mL
16,CCOc1cnc(C(=O)NNC(=O)c2ccccc2Br)o1,> 53.1 µg/mL
17,Cc1ccccc1N(Cc1cc(=O)[nH]c2ccccc12)C(=O)C(C)C,36 µg/mL
18,Cc1ccc(C(=O)N2CCN(c3ccc([N+](=O)[O-])cc3)CC2)o1,40.2 µg/mL
19,CC1CCCN(CC(=O)N2c3ccccc3Sc3ccccc32)C1 (stereo not given),31.7 µg/mL
20,O=Cc1cn(-c2ccccc2)nc1-c1ccncc1,> 37.4 µg/mL
21,O=C1ON=C(c2ccccc2)/C1=C/c1ccc(O)c(O)c1,> 42.2 µg/mL
22,CN1C(=O)C2(OCC(CO)([N+](=O)[O-])CO2)c2ccccc21 (stereo not given),> 44.1 µg/mL

row,Compound,solubility kinetic
1,NC(CSCc1ccccc1Cl)C(=O)O (stereo not given),> 36.9 µg/mL
2,CC(=O)NCCC(=O)N1CCCC(N(C)CCc2ccccc2)C1 (stereo not given),> 49.7 µg/mL
3,Cc1nc(N2CCOCC2)c2c3c(sc2n1)CCC3,34.4 µg/mL
4,COC(=O)c1c(C)[nH]c(C)c1C(C)=O,> 29.3 µg/mL
5,Brc1ccccc1C1Nc2cccc3cccc(c23)N1,2.8 µg/mL
6,O=C(Cc1ccc(Br)cc1)NCCCn1ccnc1,> 48.3 µg/mL
7,O=C(Nc1cccnc1)c1cc([N+](=O)[O-])ccc1Cl,> 41.7 µg/mL
8,Cc1ccc(S(C)(=O)=O)cc1C(=O)NC(C)C1CC2CCC1C2 (stereo not given),47.8 µg/mL
9,CCN(CC(=O)Nc1ccc2c(c1)OCCO2)C(=O)/C=C/c1cccc(C(F)(F)F)c1,3.6 µg/mL
10,COc1cc(OC)cc(C(=O)N[C@H](C(=O)Nc2c(C)n(C)n(-c3ccccc3)c2=O)C(C)C)c1,> 70 µg/mL
11,O=[N+]([O-])c1ccc(C2NS(=O)(=O)N=C3CCCCCN32)cc1 (stereo not given),> 48.7 µg/mL
12,CN(C)S(=O)(=O)c1ccc(C(=O)NC(=O)CSc2nncs2)cc1,> 58 µg/mL
13,Fc1ccc(CNC(=S)NC2CCCCCC2)cc1,28.3 µg/mL
14,CC(=O)Nc1ccc(/C=C/c2ccc3c([N+](=O)[O-])cccc3n2)cc1,16.2 µg/mL
15,N#C/C(=C/c1cccc(O)c1)C(=O)NCc1ccc(Cl)cc1,1.3 µg/mL
16,Cc1cc([N+](=O)[O-])nn1CC(=O)N1CCN(Cc2ccccc2)CC1,> 51.5 µg/mL
17,O=C(COC(=O)c1cccc([N+](=O)[O-])c1)NC1CCCC1,32.3 µg/mL
18,O=C(CNC(=O)c1cccc(F)c1)NC1CC1,> 35.4 µg/mL
19,COc1cc(/C=C/C(=O)OCC(=O)Nc2cc(S(=O)(=O)N3CCOCC3)ccc2Cl)cc(OC)c1OC,5.3 µg/mL
20,Cc1noc(C)c1S(=O)(=O)Nc1ccc(C(C)C)cc1,> 44.2 µg/mL
21,O=C(CN1CCCC1)NN=C(c1ccccc1)c1ccccc1,> 46.1 µg/mL
22,O=C1/C(=C\c2ccncc2)N2CCC1CC2,> 32.1 µg/mL

row,Compound,solubility kinetic
1,O=C(c1ccco1)N1CCN(Cc2nc(Cc3ccccc3)no2)CC1,37.7 µg/mL
2,Oc1ccc(Cl)cc1C=Nc1ccc2c3c(cccc13)CC2,> 46.2 µg/mL
3,O=C(O)c1ccccc1NCc1ccsc1,> 35 µg/mL
4,COC(=O)c1cc(NC(=O)c2cccnc2)cc(C(=O)OC)c1,5.6 µg/mL
5,O=C(NS(=O)(=O)c1ccccc1[N+](=O)[O-])c1ccccc1,> 45.9 µg/mL
6,O=C(Nc1cc(Cl)ccc1Cl)c1ccco1,7.6 µg/mL
7,CC(=O)c1c(C)[nH]c(C(=O)Nc2ccc(F)c(F)c2F)c1C,1.8 µg/mL
8,COc1ccc(C(C)NC(=O)C23CC4CC(CC(C4)C2)C3)cc1 (stereo not given),0.8 µg/mL
9,Cc1ccccc1OC(C)C(=O)Nc1cccnc1 (stereo not given),36.6 µg/mL
10,COC(=O)c1ccc(OC(=O)N2CCOCC2)cc1,33.6 µg/mL
11,O=C(NCCc1ccccc1)c1cc([N+](=O)[O-])ccc1N1CCOCC1,53.2 µg/mL
12,CC(C)[C@H](NS(=O)(=O)c1ccccc1)C(=O)OCC(=O)NC(=O)NC1CCCCC1,> 65.9 µg/mL
13,CC(=O)c1cc(CN2CCN(CC=C(C)C)C(CCO)C2)cs1 (stereo not given),> 50.5 µg/mL
14,Cc1nc2ccccn2c1C(=O)NNC(=O)Nc1ccccc1,> 46.4 µg/mL
15,S=C(NCCc1c[nH]c2ccccc12)NC1CC1,> 38.9 µg/mL
16,O=C(c1ccco1)N1CCN(C(=O)c2ccc(-c3ccc([N+](=O)[O-])cc3)o2)CC1,44.1 µg/mL
17,Cc1nnc(SCc2cc(=O)[nH]c(=S)[nH]2)s1,> 40.9 µg/mL
18,CCOc1ccccc1NC(=S)NCc1ccccc1,38.8 µg/mL
19,Cc1nc(NC(=O)CSc2nnc(C3CC3)n2N)c(Cl)cc1Cl,> 56 µg/mL
20,CC(NC(=O)c1ccc([N+](=O)[O-])cc1Cl)C1CC2CCC1C2 (stereo not given),28 µg/mL

# Next, values leading:
row,solubility kinetic,Compound
1,> 32.7 µg/mL,Nc1ccc(NC(=O)c2cccs2)cc1
2,< 0.3 µg/mL,COc1cc2sc(NC(=O)c3ccco3)nc2cc1Cl
3,1.1 µg/mL,C#CCN1C(=O)S/C(=C\c2cc3c(cc2OC)OCO3)C1=O
4,44.2 µg/mL,COc1cccc(OC)c1C(=O)NC(C)CCc1ccccc1 (stereo not given)
5,> 43.7 µg/mL,CNC(=O)c1sc(NCc2ccccc2OC)nc1C
6,0.5 µg/mL,Cc1ccc(-c2cc(C(=O)NC3CCCC3)no2)cc1
7,> 49.1 µg/mL,COC(=O)c1ccc(C2NCCc3cc(OC)c(OC)cc32)cc1 (stereo not given)
8,5.2 µg/mL,COCCn1c(C)cc(C(=O)COC(=O)c2cccnc2SC)c1C
9,35.2 µg/mL,COc1ccc(/C(N)=N/OC(=O)C2CCCCC2)cc1OC
10,1.2 µg/mL,CC1Oc2ccccc2N(CC(=O)Nc2ccccc2F)C1=O (stereo not given)
11,0.8 µg/mL,Cc1ccc(OCC(=O)Nc2ccccc2C(=O)NC2CC2)cc1C
12,5.2 µg/mL,COc1ccc(NC(=O)COC(=O)CCc2ccccc2)c(OC)c1
13,> 47.6 µg/mL,CCN1C(=O)CC(N2CCN(c3cccc(OC)c3)CC2)C1=O (stereo not given)
14,26.9 µg/mL,COc1cccc2cc(C(=O)NCCc3ccccc3)oc12
15,> 46.1 µg/mL,Cn1c(SCc2ccc(C#N)cc2)nnc1-c1ccncc1
16,18.1 µg/mL,Cc1ccc(CC(=O)O/N=C(\N)c2ccncc2)cc1
17,> 45.7 µg/mL,COCc1nc2ccccc2n1Cc1c(F)cccc1Cl
18,2.1 µg/mL,COc1ccc(NC(=O)Cc2ccc(C)c(C)c2)cc1Cl
19,46.3 µg/mL,CC1=C(C)C(OCCCl)N(c2cc(O)c(Cl)cc2F)C1=O (stereo not given)

row,solubility kinetic,Compound
1,> 36.3 µg/mL,CCCCNC(=O)c1cc(C)nc2ccccc12
2,0.8 µg/mL,Cc1cc(/C=C(\C#N)C(=O)Nc2ccccc2F)c(C)[nH]1
3,23.8 µg/mL,COc1ccc(-c2csc(N)n2)cc1F
4,> 51.4 µg/mL,COc1ccc(CN(C)CC(=O)NC(C)c2ccccc2)cc1OC (stereo not given)
5,9.4 µg/mL,Cn1c(N)c(C(=O)COc2ccc(C#N)cc2)c(=O)n(C)c1=O
6,26.5 µg/mL,Fc1cc2[nH]c(=S)[nH]c2cc1Cl
7,> 42.6 µg/mL,CCc1nc2ccccc2n1CC(=O)Nc1cc(C)on1
8,> 37.2 µg/mL,Cc1cccc(NC(=O)c2cccnc2Cl)n1
9,5.7 µg/mL,COCCN(C(=O)c1ccco1)c1nc(-c2ccccc2)cs1
10,1.9 µg/mL,c1ccc(-c2cccs2)nc1
11,> 47.3 µg/mL,COc1ccc(C(=O)NCc2ccc3c(c2)OCO3)c(OC)c1
12,10.5 µg/mL,CNC(=O)c1cc(C(=O)c2ccc(Cl)cc2)c[nH]1
13,> 43.5 µg/mL,COC(=O)CN1C(=O)N/C(=C/c2ccccc2OC)C1=O
14,< 0.7 µg/mL,CCOC(=O)c1c(C)n(C)c2c1cc(OC(C)=O)c1ccccc12
15,> 40.8 µg/mL,Cn1c(=O)c2sccc2n(Cc2ccccc2)c1=O
16,> 38.7 µg/mL,COc1cccc(C(=O)Nc2cccnc2)c1OC
17,3.6 µg/mL,Br.Cc1ccnc(Nc2nc(-c3sc(C)nc3C)cs2)c1
18,> 44.5 µg/mL,CCNC(=S)Nc1ccc(-c2nc3ccccc3[nH]2)cc1
19,44.3 µg/mL,Cc1oc(-c2cccc(C(F)(F)F)c2)nc1CN1CCOCC1

row,solubility kinetic,Compound
1,2.1 µg/mL,CC(=O)Nc1nccc(-c2cc(-c3ccccc3)no2)n1
2,> 54.4 µg/mL,CC1CN(c2nc(Nc3ccccc3F)nc(N)c2[N+](=O)[O-])CC(C)O1 (stereo not given)
3,> 42.6 µg/mL,O=C(Nc1cccc2ccccc12)OCc1cncs1
4,> 47.5 µg/mL,COc1ccc(NC(=S)NCc2ccc3c(c2)OCO3)cc1
5,0.3 µg/mL,CCOC(=O)c1cc(NC(=O)Nc2cc(C)ccn2)c(C)nc1C
6,14 µg/mL,COc1ccccc1Nc1nc(N)nc(CN2CC(C)CC(C)C2)n1 (stereo not given)
7,16.3 µg/mL,CC(C)COC(=O)n1c(SCC(N)=O)nc2ccccc21
8,> 29.7 µg/mL,Cc1ccc(CNc2cccnc2)cc1
9,26.9 µg/mL,C=CCNc1nc(C(=O)OCC(=O)Nc2ccccc2C(F)(F)F)cs1
10,> 45 µg/mL,CC(=O)N(c1cccc(Cl)c1)c1nc(C)cc(C)c1C#N
11,17.3 µg/mL,COc1ccc(S(=O)(=O)NCCc2c[nH]c3ccc(C)cc23)cc1
12,3.3 µg/mL,O=c1cc(-c2ccccc2)nc(Sc2ccc([N+](=O)[O-])cc2[N+](=O)[O-])[nH]1
13,5 µg/mL,COc1ccccc1NS(=O)(=O)c1cc(N)ccc1N1CCOCC1
14,> 41.9 µg/mL,O=C(COC(=O)CC1CCCC1)Nc1cccc(F)c1
15,35.7 µg/mL,CCCCOc1ccc(C(=O)N=c2sccn2C)cc1OC
16,> 31.4 µg/mL,Cc1nnc(Nc2ccccc2F)s1
17,42.6 µg/mL,CC(C)(C)C(=O)Nc1ccc(-c2cn3cccnc3n2)cc1
18,> 35.6 µg/mL,CNC(=O)c1cccc2nc3ccccc3nc12
